Measured values published in the supplement of paper PMC11781733.

Tests used:
Conditions in all cases: exposure time: 15 min to 3 h acute
[1] = system: Dugesia japonica; assay: contracted body shape incidence (% planarians (vehicle-normalised)); higher = higher incidence or increase relative to vehicle control
Method: (§1)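 Adult asexual Dugesia japonica planarians (1 per well, 48-well plate, n=24 over technical triplicates) were exposed acutely (15 min to 3 h) to each compound (0.5% DMSO or water vehicle) and screened on a robotic platform for crawl-out, stickiness, body shape, phototaxis, noxious-heat scrunching and locomotion endpoints. Binary endpoints are incidence rate x100 normalised to in-plate vehicle controls. Continuous endpoints are the median response normalised to the plate vehicle median, as % change or difference. Negative incidences after vehicle subtraction were set to 0.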

[2] = system: Dugesia japonica; assay: speed in dark vs vehicle (% change vs vehicle); higher = higher incidence or increase relative to vehicle control
Method: as §1

[3] = system: Dugesia japonica; assay: resting fraction in dark vs vehicle (difference in fraction x100 vs vehicle); higher = higher incidence or increase relative to vehicle control
Method: as §1

[4] = system: Dugesia japonica; assay: crawl-out incidence (% planarians); higher = higher incidence or increase relative to vehicle control
Method: as §1, with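 “x100.” for “x100 normalised to in-plate vehicle controls.”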

[5] = system: Dugesia japonica; assay: stickiness incidence (% planarians (vehicle-normalised)); higher = higher incidence or increase relative to vehicle control
Method: as §1

[6] = system: Dugesia japonica; assay: noxious heat displacement strength vs vehicle (% change vs vehicle); higher = higher incidence or increase relative to vehicle control
Method: as §1

[7] = system: Dugesia japonica; assay: C-shape incidence (% planarians (vehicle-normalised)); higher = higher incidence or increase relative to vehicle control
Method: as §1

[8] = system: Dugesia japonica; assay: pharynx extrusion incidence (% planarians (vehicle-normalised)); higher = higher incidence or increase relative to vehicle control
Method: as §1

[9] = system: Dugesia japonica; assay: hyperkinesis incidence (% planarians (vehicle-normalised)); higher = higher incidence or increase relative to vehicle control
Method: as §1

[10] = system: Dugesia japonica; assay: speed second 30 s blue light vs vehicle (% change vs vehicle); higher = higher incidence or increase relative to vehicle control
Method: as §1

[11] = system: Dugesia japonica; assay: speed first 30 s blue light vs vehicle (% change vs vehicle); higher = higher incidence or increase relative to vehicle control
Method: as §1

[12] = system: Dugesia japonica; assay: corkscrew incidence (% planarians (vehicle-normalised)); higher = higher incidence or increase relative to vehicle control
Method: as §1

[13] = system: Dugesia japonica; assay: total locomotor bursts minus vehicle (bursts difference vs vehicle); higher = higher incidence or increase relative to vehicle control
Method: as §1

[14] = system: Dugesia japonica; assay: loss of phototaxis incidence (% planarians (vehicle-normalised)); higher = higher incidence or increase relative to vehicle control
Method: as §1

[15] = system: Dugesia japonica; assay: anxiety (time in outer well region) vs vehicle (% change vs vehicle); higher = higher incidence or increase relative to vehicle control
Method: as §1

[16] = system: Dugesia japonica; assay: any abnormal body shape incidence (% planarians (vehicle-normalised)); higher = higher incidence or increase relative to vehicle control
Method: as §1

[17] = system: Dugesia japonica; assay: loss of heat-induced scrunching incidence (% planarians (vehicle-normalised)); higher = higher incidence or increase relative to vehicle control
Method: as §1

[18] = system: Dugesia japonica; assay: resting fraction in blue light vs vehicle (difference in fraction x100 vs vehicle); higher = higher incidence or increase relative to vehicle control
Method: as §1

Structure (SMILES)	contracted body shape incidence [1]	speed in dark [2]	resting fraction in dark [3]	crawl-out incidence [4]	stickiness incidence [5]	noxious heat displacement strength [6]	C-shape incidence [7]	pharynx extrusion incidence [8]	hyperkinesis incidence [9]	speed second 30 s blue light [10]	speed first 30 s blue light [11]	corkscrew incidence [12]	total locomotor bursts minus vehicle [13]	loss of phototaxis incidence [14]	anxiety [15]	any abnormal body shape incidence [16]	loss of heat-induced scrunching incidence [17]	resting fraction in blue light [18]
CC(NC(C)(C)C)C(=O)c1cccc(Cl)c1 (stereo not given) [bupropion] (31.6 µM)	4.17	-1.56	17.5	0	≤ 0	-22.3	0	0	0	-19.4	-59.5	0	-7.5	20.8	2.47	0	16.7	23.4
CN(C)CCCN1c2ccccc2CCc2ccccc21 [imipramine] (10 µM)	0	-48.9	4.41	0	16.7	-29.7	0	0	0	-51.7	-47.9	0	10.8	12.5	0.22	0	≤ 0	3.16
O=C(CCCN1CC=C(n2c(=O)[nH]c3ccccc32)CC1)c1ccc(F)cc1 [droperidol] (10 µM)	29.2	-80	68.7	0	≤ 0	-23.3	20.8	0	25	-91.1	-93.8	12.5	19.5	54.2	-31.9	70.8	70.8	67.9
CN1CC(=O)N=C1NC(=O)Nc1cccc(Cl)c1 [fenobam] (562 µM)	0	-21.3	0.55	0	≤ 0	-39.8	0	0	0	-18.3	-24.4	0	2.75	≤ 0	-14.4	0	≤ 0	1.05
CN(C)CCCN1c2ccccc2CCc2ccccc21 [imipramine] (31.6 µM)	12.5	-64	6.51	0	34.8	-21.9	0	4.17	33.3	-64.4	-68.6	0	15.2	20.8	-4.58	45.8	≤ 0	6.1
CN1C(=O)CN=C(c2ccccc2)c2cc(Cl)ccc21 [diazepam] (31.6 µM)	8.33	-43.7	56.8	0	16.7	-21.6	25	25	8.33	-63	-43.1	4.17	6.5	8.33	-8.02	41.7	16.7	17.2
CN(C)CCC[C@@]1(c2ccc(F)cc2)OCc2cc(C#N)ccc21 [escitalopram] (316 µM)	0	-24.6	-1.78	0	≤ 0	-39.8	0	0	50	-35.5	-31.5	0	16	≤ 0	1.26	50	25	-0.69
O=C1CCc2ccc(OCCCCN3CCN(c4cccc(Cl)c4Cl)CC3)cc2N1 [aripiprazole] (100 µM)	0	-64.8	56.9	4.17	≤ 0	-49	60.9	0	17.4	-88.8	-88.7	0	55	47.8	-67.2	65.2	78.3	69.8
CC(NC(C)(C)C)C(=O)c1cccc(Cl)c1 (stereo not given) [bupropion] (316 µM)	0	22.5	51.6	0	29.2	-7.65	0	0	4.17	-21.6	-72	0	-7	≤ 0	5.33	0	8.33	25.2
CN(C)CCC[C@@]1(c2ccc(F)cc2)OCc2cc(C#N)ccc21 [escitalopram] (100 µM)	0	-3.87	-4.57	0	≤ 0	-34	0	0	0	-2.15	-13.7	0	1.75	16.7	1.47	0	25	-0.46
[Cl-].[Na+] [sodium chloride] (3470 µM)	0	-7.38	2.94	4.17	≤ 0	-5.24	0	0	0	-2.5	18.8	0	0.5	≤ 0	-4.03	0	12.5	-8.67
CNCC[C@H](Oc1cccc2ccccc12)c1cccs1 [s-duloxetine] (100 µM)	34.8	-50.6	55.5	4.17	≤ 0	-66.8	13	65.2	0	-87.5	-84	0	-4.5	56.5	-57.1	82.6	73.9	72.3
O=C1CCc2ccc(OCCCCN3CCN(c4cccc(Cl)c4Cl)CC3)cc2N1 [aripiprazole] (10 µM)	0	-46.8	34.5	0	≤ 0	-17.3	12.5	0	4.17	-63.1	-70.8	4.17	31	25	-16.3	20.8	16.7	19.8
CN1CCN(CCCN2c3ccccc3Sc3ccc(Cl)cc32)CC1 [prochloroperazine] (3.16 µM)	4.17	-37.4	15.2	4.17	4.17	-46.2	0	0	12.5	-55.6	-37.9	0	14.8	17.4	19	16.7	45.8	-3.15
Cc1cc2c(s1)Nc1ccccc1N=C2N1CCN(C)CC1 [olanzapine] (316 µM)	31.8	-71.2	73.9	37.5	22.7	-47.4	27.3	0	45.5	-89.1	-94.9	13.6	7	13.3	-6.74	81.8	72.7	77.4
